Test results as given in article PMC5007443, “TNIK inhibition abrogates colorectal cancer stemness” (Nature Communications, 2016).
Several values for one entry are separate records, joined by “and”; a condition that tells them apart may be missing. Equal entries are not always repeated.

Legend:
[1] = biological target: EPHA4 (Homo sapiens, UniProt P54764); experiment: Kinase selectivity profiling, EPH receptor A4; type: biochemical; conditions: read-out: Percentage inhibition of EPHA4
Description: (§1) The selectivity of compounds against a panel of 50 human protein kinases was assessed using a non-radiometric assay.

[2] = biological target: PKCα (Homo sapiens, UniProt P17252); experiment: Kinase selectivity profiling, Protein kinase C-α; type: biochemical; conditions: read-out: Percentage inhibition of PKCα
Description: as §1

[3] = biological target: T1, JAK3 (Homo sapiens, UniProt P52333); experiment: Kinase selectivity profiling, Janus kinase 3; type: biochemical; conditions: 0.1 µM inhibitor, ATP at Km; for inhibition at 0.1 µM: read-out: Percentage inhibition of JAK3
T1 sequence (P52333 1-1124): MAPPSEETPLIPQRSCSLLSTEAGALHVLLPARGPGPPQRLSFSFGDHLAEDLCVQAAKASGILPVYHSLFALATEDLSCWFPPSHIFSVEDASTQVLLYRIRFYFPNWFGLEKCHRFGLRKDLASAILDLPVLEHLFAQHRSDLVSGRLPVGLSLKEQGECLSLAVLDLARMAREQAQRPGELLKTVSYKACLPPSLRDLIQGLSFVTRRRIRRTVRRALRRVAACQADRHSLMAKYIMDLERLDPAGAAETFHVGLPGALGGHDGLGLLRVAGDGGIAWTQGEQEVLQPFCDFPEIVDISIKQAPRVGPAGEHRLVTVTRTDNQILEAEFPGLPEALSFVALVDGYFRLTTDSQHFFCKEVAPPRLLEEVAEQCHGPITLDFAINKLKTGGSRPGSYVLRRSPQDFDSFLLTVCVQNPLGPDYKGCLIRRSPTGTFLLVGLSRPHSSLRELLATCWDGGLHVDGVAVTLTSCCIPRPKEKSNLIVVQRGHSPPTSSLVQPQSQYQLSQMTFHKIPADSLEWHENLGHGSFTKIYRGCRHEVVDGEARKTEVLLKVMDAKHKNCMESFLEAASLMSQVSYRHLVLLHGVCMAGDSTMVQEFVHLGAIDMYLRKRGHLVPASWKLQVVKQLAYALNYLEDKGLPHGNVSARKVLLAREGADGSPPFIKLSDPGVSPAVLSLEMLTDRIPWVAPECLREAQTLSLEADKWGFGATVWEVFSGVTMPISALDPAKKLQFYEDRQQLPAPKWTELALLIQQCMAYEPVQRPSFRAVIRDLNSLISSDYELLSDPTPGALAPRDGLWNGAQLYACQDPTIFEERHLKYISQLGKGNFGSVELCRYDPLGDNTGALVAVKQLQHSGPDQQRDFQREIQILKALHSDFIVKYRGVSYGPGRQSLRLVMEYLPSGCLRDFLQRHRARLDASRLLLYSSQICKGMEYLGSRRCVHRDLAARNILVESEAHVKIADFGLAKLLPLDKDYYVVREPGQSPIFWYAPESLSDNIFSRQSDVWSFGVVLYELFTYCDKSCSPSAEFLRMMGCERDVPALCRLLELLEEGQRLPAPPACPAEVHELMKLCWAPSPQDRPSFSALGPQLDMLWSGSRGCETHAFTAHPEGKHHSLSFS
Description: as §1

[4] = biological target: AurA (Homo sapiens, UniProt O14965); experiment: Kinase selectivity profiling, Aurora kinase A; type: biochemical; conditions: read-out: Percentage inhibition of AurA
Description: as §1

[5] = biological target: EGFR (Homo sapiens, UniProt P00533); experiment: Kinase selectivity profiling, Epidermal growth factor receptor; type: biochemical; conditions: read-out: Percentage inhibition of EGFR
Description: as §1

[6] = test system: patient-derived colorectal cancer spheroids #6; experiment: Limiting dilution analysis of sphere reformation, spheroids #6; type: cell-based, human; conditions: spheroids #6, 3-day Treatment
Description: Spheroids were gently dissociated into single cells with the use of StemPro Accutase (Thermo Fisher Scientific), and 1,000, 100, 10 or 1 viable cells were seeded into each well of a 96-well U-bottom PrimeSurface plate (Supplementary Figs 10b and 12). Experiments were performed in triplicate and repeated at least two times.

[7] = biological target: PIM1 (Homo sapiens, UniProt P11309); experiment: Kinase selectivity profiling, Pim-1 oncogene; type: biochemical; conditions: read-out: Percentage inhibition of PIM1
Description: as §1

[8] = biological target: PKACα (Homo sapiens, UniProt P17612); experiment: Kinase selectivity profiling, cAMP-dependent protein kinase, catalytic subunit α; type: biochemical; conditions: read-out: Percentage inhibition of PKACα
Description: as §1

[9] = biological target: SYK (Homo sapiens, UniProt P43405); experiment: Kinase selectivity profiling, Spleen tyrosine kinase; type: biochemical; conditions: read-out: Percentage inhibition of SYK
Description: as §1

[10] = test system: HCT116 cells; experiment: Soft-agar colony-formation assay; type: cell-based; conditions: Homo sapiens, HCT-116, 336 h; HCT116, 14 days
Description: One milliliter of 0.33% agar (Lonza) in culture medium containing 1.5 × 10^4 cells was plated onto 1 ml of solidified base agar (0.5%) in each well of six-well clusters. The top agar layer was covered with culture medium containing serially diluted compounds. The medium was replaced every three days. Cell number was determined colorimetrically at 450–650 nm using the Cell Count Reagent SF (Nacalai Tesque). IC50 values were obtained by fitting a four-parameter dose–response curve to normalized data using GraphPad Prism version 5 (GraphPad software; Fig. 3b). Experiments were performed in triplicate and repeated at least two times.

[11] = biological target: CaMK4 (Homo sapiens, UniProt Q16566); experiment: Kinase selectivity profiling, Calcium/calmodulin-dependent protein kinase IV; type: biochemical; conditions: read-out: Percentage inhibition of CaMK4
Description: as §1

[12] = biological target: TIE2 (Homo sapiens, UniProt Q02763); experiment: Kinase selectivity profiling, TEK tyrosine kinase; type: biochemical; conditions: read-out: Percentage inhibition of TIE2
Description: as §1

[13] = biological target: FLT3 (Homo sapiens, UniProt P36888); experiment: Kinase selectivity profiling, Fms-related tyrosine kinase 3; type: biochemical; conditions: 0.1 µM inhibitor, ATP at Km
Description: as §1

[14] = biological target: Erk2 (Homo sapiens, UniProt P28482); experiment: Kinase selectivity profiling, Mitogen-activated protein kinase 1; type: biochemical; conditions: read-out: Percentage inhibition of Erk2
Description: as §1

Sequence of FLT3 (P36888 27-993): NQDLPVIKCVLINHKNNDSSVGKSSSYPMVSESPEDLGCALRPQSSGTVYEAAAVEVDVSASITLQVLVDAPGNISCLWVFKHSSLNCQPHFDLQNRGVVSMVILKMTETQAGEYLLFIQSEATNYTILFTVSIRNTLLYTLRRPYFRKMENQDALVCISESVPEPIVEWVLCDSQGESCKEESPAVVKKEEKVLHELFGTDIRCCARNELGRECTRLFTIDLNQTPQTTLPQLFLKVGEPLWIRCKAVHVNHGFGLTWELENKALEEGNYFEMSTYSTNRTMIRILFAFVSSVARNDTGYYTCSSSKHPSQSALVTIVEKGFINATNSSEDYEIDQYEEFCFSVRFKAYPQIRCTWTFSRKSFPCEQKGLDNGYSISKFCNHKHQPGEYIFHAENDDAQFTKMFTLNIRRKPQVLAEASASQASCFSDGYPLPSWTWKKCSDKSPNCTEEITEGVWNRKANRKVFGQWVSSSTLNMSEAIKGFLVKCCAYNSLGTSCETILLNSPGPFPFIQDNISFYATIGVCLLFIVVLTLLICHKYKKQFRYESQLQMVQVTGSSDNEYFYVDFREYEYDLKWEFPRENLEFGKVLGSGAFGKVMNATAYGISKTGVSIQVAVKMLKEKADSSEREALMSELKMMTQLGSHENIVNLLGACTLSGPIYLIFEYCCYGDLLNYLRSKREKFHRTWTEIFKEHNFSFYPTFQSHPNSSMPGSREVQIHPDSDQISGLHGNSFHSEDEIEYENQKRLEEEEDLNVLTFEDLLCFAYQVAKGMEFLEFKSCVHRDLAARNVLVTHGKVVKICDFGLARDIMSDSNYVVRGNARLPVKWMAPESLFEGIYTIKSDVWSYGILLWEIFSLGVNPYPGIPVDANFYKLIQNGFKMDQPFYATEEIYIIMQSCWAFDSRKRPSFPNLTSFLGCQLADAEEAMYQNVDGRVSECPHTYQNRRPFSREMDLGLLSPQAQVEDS
Sequence of EGFR (P00533 25-1210): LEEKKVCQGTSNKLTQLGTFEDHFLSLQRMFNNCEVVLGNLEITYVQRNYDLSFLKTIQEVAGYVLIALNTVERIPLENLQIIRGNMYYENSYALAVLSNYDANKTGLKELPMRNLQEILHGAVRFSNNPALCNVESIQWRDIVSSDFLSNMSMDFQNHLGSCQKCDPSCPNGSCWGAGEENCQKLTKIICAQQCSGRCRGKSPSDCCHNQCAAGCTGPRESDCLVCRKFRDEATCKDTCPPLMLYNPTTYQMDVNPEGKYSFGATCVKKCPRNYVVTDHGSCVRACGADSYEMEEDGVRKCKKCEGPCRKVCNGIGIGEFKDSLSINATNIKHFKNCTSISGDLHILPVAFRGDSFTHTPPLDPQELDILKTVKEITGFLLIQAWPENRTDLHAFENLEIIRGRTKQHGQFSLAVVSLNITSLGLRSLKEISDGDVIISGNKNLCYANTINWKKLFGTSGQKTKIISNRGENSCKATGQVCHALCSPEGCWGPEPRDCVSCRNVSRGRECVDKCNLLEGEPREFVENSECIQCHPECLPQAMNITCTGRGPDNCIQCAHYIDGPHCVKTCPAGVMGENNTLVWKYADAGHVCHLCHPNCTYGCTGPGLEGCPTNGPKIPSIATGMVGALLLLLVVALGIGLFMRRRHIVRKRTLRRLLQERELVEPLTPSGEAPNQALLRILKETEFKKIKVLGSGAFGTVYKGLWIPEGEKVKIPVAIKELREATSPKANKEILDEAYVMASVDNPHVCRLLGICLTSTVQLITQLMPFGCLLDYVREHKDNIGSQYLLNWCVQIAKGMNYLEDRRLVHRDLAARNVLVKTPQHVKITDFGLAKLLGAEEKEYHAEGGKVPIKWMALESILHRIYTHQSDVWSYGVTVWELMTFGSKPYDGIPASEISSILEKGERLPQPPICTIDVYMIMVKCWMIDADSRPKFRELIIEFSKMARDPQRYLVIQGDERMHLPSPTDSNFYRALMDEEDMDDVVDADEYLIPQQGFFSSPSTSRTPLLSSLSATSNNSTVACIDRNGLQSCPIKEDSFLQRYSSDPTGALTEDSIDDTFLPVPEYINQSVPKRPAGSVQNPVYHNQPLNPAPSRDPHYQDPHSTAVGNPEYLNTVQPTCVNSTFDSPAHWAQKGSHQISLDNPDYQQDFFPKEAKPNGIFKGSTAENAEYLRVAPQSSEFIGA
Sequence of Erk2 (P28482 whole entry): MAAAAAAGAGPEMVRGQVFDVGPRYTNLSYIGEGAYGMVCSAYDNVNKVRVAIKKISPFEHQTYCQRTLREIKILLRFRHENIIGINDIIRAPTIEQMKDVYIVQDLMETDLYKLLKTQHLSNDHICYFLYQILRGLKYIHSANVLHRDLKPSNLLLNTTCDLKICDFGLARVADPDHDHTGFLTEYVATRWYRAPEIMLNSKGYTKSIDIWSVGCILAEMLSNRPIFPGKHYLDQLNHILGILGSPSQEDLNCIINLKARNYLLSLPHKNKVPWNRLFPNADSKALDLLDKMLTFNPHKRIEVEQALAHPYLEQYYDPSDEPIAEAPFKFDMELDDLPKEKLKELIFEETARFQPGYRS
Sequence of AurA (O14965 whole entry): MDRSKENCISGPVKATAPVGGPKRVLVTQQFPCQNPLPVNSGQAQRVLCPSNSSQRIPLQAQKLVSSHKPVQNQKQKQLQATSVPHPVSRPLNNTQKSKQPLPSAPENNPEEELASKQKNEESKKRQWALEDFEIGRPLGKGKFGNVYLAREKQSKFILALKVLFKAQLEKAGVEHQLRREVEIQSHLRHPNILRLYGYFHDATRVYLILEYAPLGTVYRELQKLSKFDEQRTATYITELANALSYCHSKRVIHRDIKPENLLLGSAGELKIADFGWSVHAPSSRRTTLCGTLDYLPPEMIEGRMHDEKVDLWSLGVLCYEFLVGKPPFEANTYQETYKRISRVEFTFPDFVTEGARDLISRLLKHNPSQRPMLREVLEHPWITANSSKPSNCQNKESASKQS
Sequence of TIE2 (Q02763 23-1124): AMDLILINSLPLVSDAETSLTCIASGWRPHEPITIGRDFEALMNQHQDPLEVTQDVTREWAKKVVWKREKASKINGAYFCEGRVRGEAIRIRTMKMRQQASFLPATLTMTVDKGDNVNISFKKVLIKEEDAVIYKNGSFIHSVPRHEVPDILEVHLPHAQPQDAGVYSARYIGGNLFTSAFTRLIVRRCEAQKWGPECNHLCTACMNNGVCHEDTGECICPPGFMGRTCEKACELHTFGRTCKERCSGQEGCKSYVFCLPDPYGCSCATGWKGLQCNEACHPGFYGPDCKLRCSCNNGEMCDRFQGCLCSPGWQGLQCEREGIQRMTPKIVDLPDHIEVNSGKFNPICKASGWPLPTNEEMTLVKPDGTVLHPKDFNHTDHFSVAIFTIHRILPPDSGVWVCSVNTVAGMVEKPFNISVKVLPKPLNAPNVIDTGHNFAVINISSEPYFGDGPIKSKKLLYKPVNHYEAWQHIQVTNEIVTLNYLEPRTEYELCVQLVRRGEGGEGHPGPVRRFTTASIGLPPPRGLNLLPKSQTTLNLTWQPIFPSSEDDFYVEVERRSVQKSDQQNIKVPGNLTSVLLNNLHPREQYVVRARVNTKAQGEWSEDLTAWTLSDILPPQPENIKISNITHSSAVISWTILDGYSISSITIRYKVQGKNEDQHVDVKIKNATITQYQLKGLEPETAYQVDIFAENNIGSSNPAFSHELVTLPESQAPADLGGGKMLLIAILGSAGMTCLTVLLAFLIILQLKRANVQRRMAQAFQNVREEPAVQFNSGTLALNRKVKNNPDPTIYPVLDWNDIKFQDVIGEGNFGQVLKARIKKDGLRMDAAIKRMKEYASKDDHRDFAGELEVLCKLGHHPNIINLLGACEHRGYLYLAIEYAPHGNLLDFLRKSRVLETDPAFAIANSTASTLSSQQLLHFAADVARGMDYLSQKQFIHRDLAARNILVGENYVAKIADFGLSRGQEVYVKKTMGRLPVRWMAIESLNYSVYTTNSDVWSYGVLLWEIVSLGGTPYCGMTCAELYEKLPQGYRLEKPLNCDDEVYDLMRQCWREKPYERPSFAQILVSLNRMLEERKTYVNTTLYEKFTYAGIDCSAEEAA
Sequence of CaMK4 (Q16566 whole entry): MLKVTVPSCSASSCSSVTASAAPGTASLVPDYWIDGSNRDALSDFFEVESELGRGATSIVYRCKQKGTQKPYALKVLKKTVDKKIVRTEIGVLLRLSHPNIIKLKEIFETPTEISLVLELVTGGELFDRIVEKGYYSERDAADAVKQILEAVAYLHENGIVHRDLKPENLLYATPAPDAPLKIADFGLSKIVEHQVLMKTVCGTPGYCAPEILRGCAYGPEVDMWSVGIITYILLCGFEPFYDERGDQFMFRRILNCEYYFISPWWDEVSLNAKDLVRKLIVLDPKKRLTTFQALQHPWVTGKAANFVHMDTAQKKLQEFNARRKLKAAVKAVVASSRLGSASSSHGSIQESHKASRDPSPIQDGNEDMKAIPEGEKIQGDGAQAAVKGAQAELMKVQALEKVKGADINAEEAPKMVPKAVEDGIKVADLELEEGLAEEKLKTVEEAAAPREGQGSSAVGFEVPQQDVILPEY
Sequence of PIM1 (P11309 whole entry): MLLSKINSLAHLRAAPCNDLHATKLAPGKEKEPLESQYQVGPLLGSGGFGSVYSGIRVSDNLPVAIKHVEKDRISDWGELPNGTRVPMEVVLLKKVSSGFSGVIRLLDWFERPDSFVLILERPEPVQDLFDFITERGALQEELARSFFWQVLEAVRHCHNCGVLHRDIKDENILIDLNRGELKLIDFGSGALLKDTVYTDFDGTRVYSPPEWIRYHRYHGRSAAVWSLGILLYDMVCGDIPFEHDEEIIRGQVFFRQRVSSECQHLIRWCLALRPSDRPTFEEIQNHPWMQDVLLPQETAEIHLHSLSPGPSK

Row | Structure (SMILES) | inhibition at 0.1 µM [1] [%] | inhibition at 0.1 µM [2] [%] | inhibition at 0.1 µM [3] [%] | inhibition at 0.1 µM [4] [%] | inhibition at 0.1 µM [5] [%] | Sphere-containing wells/total wells ([6]; 0.1 μM, 1 cell per well) | Sphere-containing wells/total wells ([6]; 0.1 μM, 10 cells per well) | Sphere-containing wells/total wells ([6]; 0.1 μM, 100 cells per well) | Sphere-containing wells/total wells ([6]; 0.1 μM, 1000 cells per well) | Sphere-containing wells/total wells ([6]; 0.3 μM, 1 cell per well) | Sphere-containing wells/total wells ([6]; 0.3 μM, 10 cells per well) | Sphere-containing wells/total wells ([6]; 0.3 μM, 100 cells per well) | Sphere-containing wells/total wells ([6]; 0.3 μM, 1000 cells per well) | Sphere-containing wells/total wells ([6]; 1.0 μM, 1 cell per well) | Sphere-containing wells/total wells ([6]; 1.0 μM, 10 cells per well) | Sphere-containing wells/total wells ([6]; 1.0 μM, 100 cells per well) | Sphere-containing wells/total wells ([6]; 1.0 μM, 1000 cells per well) | inhibition at 0.1 µM [7] [%] | inhibition at 0.1 µM [8] [%] | inhibition at 0.1 µM [9] [%] | also measured
1 | O[C@H]1CC[C@@H](Oc2cccc3cnc(Nc4ccc5nc[nH]c5c4)nc23)CC1 [NCB-0846, cis-4-(2-(3H-benzo[d]imidazol-5-ylamino)quinazolin-8-yloxy)cyclohexanol] | 5.5 | -0.9 | > 80 | 41.4 | 4.8 | 12/96 | 77/96 | 96/96 | 96/96 | 3/96 | 72/96 | 96/96 | 96/96 | 2/96 | 49/96 | 94/96 | 96/96 | -3.1 | 0.9 | 7.6 | Percentage inhibition of JAK3 ([3]; 0.1 µM): 96.3%; IC50 [10]: 0.19 µM; inhibition at 0.1 µM [11]: -1.5%; inhibition at 0.1 µM [12]: 4.9%; Percentage inhibition of FLT3 ([13]; 0.1 µM): > 80% and 104.1%; inhibition at 0.1 µM [14]: 0.7%
2 | O[C@H]1CC[C@H](Oc2cccc3cnc(Nc4ccc5nc[nH]c5c4)nc23)CC1 [NCB-0970] | 2.3 | 1.4 | 85.4 | 36.5 | -16.8 | 8/96 | 83/96 | 96/96 | 96/96 | 10/96 | 87/96 | 96/96 | 96/96 | 1/96 | 50/96 | 96/96 | 96/96 | -5 | -4.4 | 14.2 | Sphere-initiating cell frequency, Estimate ([6]; 1.0 μM): 1/15; IC50 [10]: 3.85 µM; inhibition at 0.1 µM [11]: -4.1%; inhibition at 0.1 µM [12]: -2.8%; inhibition at 0.1 µM ([13]; read-out: Percentage inhibition of FLT3): 102%; inhibition at 0.1 µM [14]: -2.1%
